These results are taken from patent publication US4480118A, “Carboxylic acid ester and an insecticidal and/or acaricidal composition containing the same” (priority 1981, dated 1984).

SMILES strings stand for the structures. Converted amounts (≈) assume the structure as drawn. Where two headings read alike, the source gives them in different places.

Series [1] has as its system northern house mosquito. The experiment in a line: Mosquito coil knockdown of adult female northern house mosquitos. The series is classed as in vivo. The method, then:
Each 0.6 g of the present compounds Nos. 10, 16 and 27 is dissolved in 20 ml of methanol and uniformly mixed with 99.4 g of a carrier for mosquito coils (a mixture of Tabu powder, pyrethrum marc and wood powder in a proportion of 3:5:1) by thorough stirring. After evaporation of methanol and addition of 150 ml of water, the mixture is thoroughly kneaded, then molded, and dried to obtain a mosquito coil.
About 50 adult female northern house mosquitos were released into a glass chamber, 70×70×70 cm, and a battery-operated small fan (diameter of rotation of the vane: 13 cm) disposed in the cabinet was operated. A mosquito coil obtained in Preparation Example 6 was ignited at both ends and placed at the center of bottom of the chamber. After 20 minutes, the number of knocked down insects was counted.

The test system of series [2] is housefly. The experiment in a line: Insecticidal activity against housefly (Filter paper bait and contact method). It counts as in vivo. As to conditions: Musca domestica; 500 ppm, 48 hours, adult female houseflies; read-out: Mortality. How it is done: Each 20 parts of the present compounds No. 1 to No. 29, 10 parts of an emulsifier (Sorpol 3005X; trademark for Toho Chemical Co.) and 70 parts of xylene are thoroughly mixed by stirring to obtain an emulsifiable concentrate of each compound.
A piece of filter paper, 5.5 cm in diameter, was laid on the bottom of a polyethylene cup of the identical inner diameter. An emulsifiable concentrate prepared in the same manner as in Preparation Example 2 was diluted with water. To the filter paper, was added dropwise 0.7 ml of the diluted sample (500 ppm in concentration). Sucrose (30 mg) was placed on the filter paper to serve as bait. Ten adult female houseflies were released into the cup, closed with a cover, and observed for the number of dead and alive insects after 48 hours to calculate the mortality (2 replications).

The subject of series [3] is housefly. In words: Activity of oil spray against adult housefly (glass chamber). It counts as in vivo. The settings on record: oil spray 0.5 ml, 10 minutes exposure; for mortality, House fly: observed on the following day, 1440 min. How it is done:
(§1) 0.1 Part of each compound Nos. 10, 12, 15, 17, 18, 19, 22, 23 and 29 of this invention is dissolved in deodorized kerosene and made up to 100 parts with kerosene to obtain an oil spray.
(§2) Ten adult houseflies and ten adult female northern house mosquitos were released in a glass chamber, 70×70×70 cm in size. An oil spray preparation (0.5 ml) obtained in Preparation Example 1 was sprayed inside the chamber and the insects were exposed to the descending mist for 10 minutes, during which time the number of knocked-down insects was counted at predetermined time intervals to determine the 50% knockdown time (KT50). On the following day, the dead and alive insects were observed.

The subject of series [4] is northern house mosquito. The experiment in a line: Activity of oil spray against adult female northern house mosquito (glass chamber). The series is classed as in vivo. As to conditions: for mortality, Northern house mosquito: in vivo, 24 h; for KT50 (50% knockdown time), Northern house mosquito: oil spray 0.5 ml, 10 minutes exposure. How it is done: as §1, §2
Another series deals with green rice leafhopper. In words: Insecticidal activity against green rice leafhopper. The settings on record: Nephotettix cincticeps, 24 h.
Series [5] concerns housefly. The experiment in a line: Insecticidal activity against housefly (Topical application method). The series is classed as in vivo. The settings on record: dorsal thorax, adult female, 24 hours. How it is done:
The present compounds and the reference compounds were diluted with acetone to prescribed concentrations. Each 0.5 μl of the diluted samples was applied topically with a microsyringe onto the dorsal thorax of an adult female housefly. The flies were fed and observed for the number of dead and alive insects after 24 hours. LD50 (median lethal dose) was calculated from the mortalities at each dosage by probit method.

Another series has as its system tobacco cutworm. In words: Insecticidal activity against tobacco cutworm. It counts as in vivo. As to conditions: 24 h, read-out: LC50 (median lethal concentration), treated artificial diet, third-instar larvae, 24 hours. How it is done: An artificial diet (15 g) for tobacco cutworm was wet with 2 ml of the prescribed aqueous dilution of an emulsifiable concentrate obtained in Preparation Example 2 or of that obtained from reference compounds. The diet thus treated was placed in a polyethylene cup of 11 cm in diameter.

As for `C#CC(OC(=O)C1C(C)(C)C12Cc1ccc(F)cc1C2)C(C)=CCC` (stereo not drawn) [Compound 27], in the series on northern house mosquito [1], the “Percent knocked down insects after 20 minutes” value (“Percent knocked down insects” for short) is on record as 10%. Also, the mortality at 500 ppm in the series with housefly [2] amounted to 100%.

Regarding `C=CCC1=C(C)C(OC(=O)C2C(C)(C)C23Cc2ccccc2C3)CC1=O` (stereo not drawn) [Compound 15], in the series on northern house mosquito [1], the “Percent knocked down insects” value was 90%. For the same compound, in the series on housefly [3], the “KT50 (50% knockdown time), House fly” value turned out to be 250 s and the “mortality, House fly” value worked out at 20%. Further, in the series on northern house mosquito [4], the “mortality, Northern house mosquito” value is 95% and the “KT50 (50% knockdown time), Northern house mosquito” value turned out to be 300 s. The mortality at 500 ppm in the series with housefly [2] came out at 100%.

In the case of `CC1(C)C(C(=O)OC(C#N)c2cccc(Oc3ccccc3)c2)C12Cc1ccccc1C2` (stereo not drawn) [Compound 2], the mortality at 50 ppm in the series with green rice leafhopper (read-out: Percent mortality days after spraying: 0), in the series on green rice leafhopper (read-out: Percent mortality days after spraying: 3) and with green rice leafhopper (read-out: Percent mortality days after spraying: 7) was 100% each time. The “LD50 (median lethal dose)” value in the series on housefly [5] was determined as 0.0045 μg/female. Also, the LC50 with tobacco cutworm amounted to 2 µg/mL (≈ 4.72 µM). Besides, the mortality at 500 ppm in the series on housefly [2] worked out at 100%.

As for `CC1(C)[C@@H](C(=O)OC(C#N)c2cccc(Oc3ccccc3)c2)[C@@]12Cc1ccccc1O2` (relative stereo) [Compound 18], the “LD50 (median lethal dose)” value with housefly [5] was 0.0061 μg/female. For the same compound, the LC50 in the series with tobacco cutworm stood at 1.8 µg/mL (≈ 4.23 µM). For the same compound, in the series with housefly [3], the “KT50 (50% knockdown time), House fly” value worked out at 600 s and the “mortality, House fly” value was 10%. For the same compound, in the series on northern house mosquito [4], the “mortality, Northern house mosquito” value was found to be 100% and the “KT50 (50% knockdown time), Northern house mosquito” value was 456 s. In addition, in the series on housefly [2], the mortality at 500 ppm is 100%.

As to `C#CCC1=C(C)C(OC(=O)C2C(C)(C)C23Cc2ccccc2C3)CC1=O` (stereo not drawn) [Compound 10], in the series on northern house mosquito [1], the “Percent knocked down insects” value is on record as 94%. In the series with housefly [3], the “KT50 (50% knockdown time), House fly” value came out at 210 s and the “mortality, House fly” value worked out at 30%. In the series with northern house mosquito [4], the “mortality, Northern house mosquito” value worked out at 100% and the “KT50 (50% knockdown time), Northern house mosquito” value was found to be 320 s. Besides, the mortality at 500 ppm in the series on housefly [2] amounted to 100%.
